Data taken from US9980928B2, “Hydroxy aliphatic substituted phenyl aminoalkyl ether derivatives” (PROUS INSTITUTE FOR BIOMEDICAL RESEARCH, S.A., priority 2012, dated 2018).
Values joined by “and” are separate entries in the source; they are usually repeats but may differ in a detail not shown here. Equal values may be shown once.

Tests used:
[1] = test system: J20 mouse model and wild-type mice; assay: Morris water maze test in old wild-type and J20 mice; type: in vivo; conditions: 30 mg/kg i.p.
Excerpt: Familial Alzheimer's disease (AD) is associated with mutations that lead to the production of the β-amyloid 42 (Aβ42) peptide, a constituent of the characteristic amyloid plaques diagnostic of AD. These mutations occur at the proteolytic cleavage sites in the gene encoding the amyloid precursor protein (APP), and in the genes for presenilins 1 and 2 (PSEN1 and PSEN2), enzymes involved in APP cleavage. […] The J20 mouse model is a suitable experimental animal model for testing the activity of drugs on cognitive performance because these mice show robust impairment in spatial learning and spatial reference memory (Karl, T. et al. Behav Brain Res 2012, 228(2): 392-97; Garcia-Barroso, C. et al. Neuropharmacology 2013, 64: 114-23). The effects of Example 2 on spatial memory and learning in the J20 mouse model using the Morris water maze test (Vorhees, Ch. V. and Williams, M. T. Nat Protoc 2006, 1(2): 848-58) were investigated in our laboratory.
The Morris water maze test was applied to 45 old male mice. Twenty wild-type and 25 J20 mice (n=10-11 for each group of treatment/genotype; 10-14 months of age) were treated with vehicle or Example 2 at 30 mg/kg i.p. Percent times in quadrants, escape latencies, distance to goal and other parameters were recorded and compared between groups to assess the compound's activity.

CHO cells = assay: In vitro MTT toxicity screen; type: cell-based, Chinese hamster; conditions: 10 μM, compared to positive control group (10% DMSO)
Protocol: The toxicity of the compounds of the present invention at a concentration of 10 μM has been explored using the tetrazolium salt (MTT) method in CHO cells. The MTT method involving conversion of MTT to colored formazan by cells serves as an indirect measurement of cell growth/cell kill, as reported by several groups (Paimela, T. et al. Mol Vis 2012; 18: 1189-96; Hansen, M. B. et al. J Immunol Methods 1989, 119(2): 203-10).
In the MTT assay, cytotoxicity is correlated with the color of MTT and is measured with a spectrophotometer at the wavelength of 570 nm. Briefly, fresh MTT solution (10 mg/mL in 1×PBS) was added (1:20 volume of medium) and the cells were incubated for 1.5 hours. The cells were lysed and purple formazan was dissolved into the solution by overnight incubation with MTT lysis buffer (20% SDS, 50% N,N-dimethylformamide, 2% acetic acid, 25 mM HCl; the volume of medium+volume of MTT salt solution).

uptake of norepinephrine = uptake of norepinephrine (Homo sapiens, UniProt P23975); assay: Uptake inhibition of norepinephrine, cellular assay; type: cell-based; conditions: read-out: Norepinephrine reuptake inhibition (IC50 μM)
Chain of uptake of norepinephrine (P23975 whole entry): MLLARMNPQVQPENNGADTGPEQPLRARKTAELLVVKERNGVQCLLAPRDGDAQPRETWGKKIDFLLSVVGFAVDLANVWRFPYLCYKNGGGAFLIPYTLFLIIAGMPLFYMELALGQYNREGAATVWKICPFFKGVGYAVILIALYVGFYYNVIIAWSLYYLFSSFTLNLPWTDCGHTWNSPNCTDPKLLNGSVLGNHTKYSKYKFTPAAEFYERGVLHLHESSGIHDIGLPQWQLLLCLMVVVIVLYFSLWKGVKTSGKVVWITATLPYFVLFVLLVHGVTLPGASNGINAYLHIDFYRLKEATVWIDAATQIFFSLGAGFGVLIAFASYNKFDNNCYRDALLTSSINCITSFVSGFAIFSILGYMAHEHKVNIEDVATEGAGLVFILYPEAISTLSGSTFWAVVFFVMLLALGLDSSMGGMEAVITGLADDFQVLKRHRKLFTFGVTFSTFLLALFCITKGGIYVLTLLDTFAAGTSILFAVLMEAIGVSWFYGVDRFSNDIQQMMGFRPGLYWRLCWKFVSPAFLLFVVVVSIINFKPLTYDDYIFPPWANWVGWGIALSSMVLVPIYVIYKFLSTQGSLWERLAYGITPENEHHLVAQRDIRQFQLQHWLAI
Protocol: The effect of the compounds of the present invention as inhibitors of the uptake of norepinephrine and serotonin in cellular assays at concentrations that range from […] to 1 nM is determined following the methods described in Galli, A. et al. J Exp Biol 1995, 198(Pt. 10): 2197-212 and Gu, H. et al. J Biol Chem. 1994, 269(10):7124-30.

[2] = molecular target: T1, norepinephrine (NE) transporter (Homo sapiens, UniProt P23975); assay: Norepinephrine transporter binding radioligand inhibition ([3H]-nisoxetine); conditions: concentration 5 μM
T1 construct: expressed in transfected cells; host or cells: CHO cells
T1 sequence (P23975 whole entry): as above
Protocol: The norepinephrine (NE) transporter removes NE from the synaptic cleft. The NE transporter terminates the effects of […], enabling its reuse by the presynaptic neuron. The in vitro binding of the compounds of the invention to the NE transporter and the percent inhibition of control-specific binding ([^3H]-nisoxetine in human recombinant CHO cells) is determined following the method described in Pacholczyk et al., (Nature 1991, 350(6316): 350-4.

mice = assay: Mouse formalin assay (analgesic activity); type: in vivo
Protocol: The analgesic activity of the compounds of the present invention is determined making use of the mouse formalin test described in Hunskaar, S. J Neurosci Methods 1985, 14(1): 69-76. The hind paw licking time was measured at 5-minute intervals for 30 minutes following subplantar injection of formalin (0.02 mL, 2%). Statistical analysis using one-way ANOVA followed by Dunnett's test was applied for comparison between the test substance-treated and vehicle control groups. P<0.05 was considered significant.

[3] = molecular target: T2, Human dopamine transporters (Homo sapiens, UniProt Q01959); assay: Binding to the dopamine transporter ([125I]-RTI-55); conditions: 10 μM; read-out: inhibitory effect on [125I]-RTI-55 binding
T2 construct: expressed in transfected cells; host or cells: CHO-K1 cells (membranes)
T2 sequence (Q01959 whole entry): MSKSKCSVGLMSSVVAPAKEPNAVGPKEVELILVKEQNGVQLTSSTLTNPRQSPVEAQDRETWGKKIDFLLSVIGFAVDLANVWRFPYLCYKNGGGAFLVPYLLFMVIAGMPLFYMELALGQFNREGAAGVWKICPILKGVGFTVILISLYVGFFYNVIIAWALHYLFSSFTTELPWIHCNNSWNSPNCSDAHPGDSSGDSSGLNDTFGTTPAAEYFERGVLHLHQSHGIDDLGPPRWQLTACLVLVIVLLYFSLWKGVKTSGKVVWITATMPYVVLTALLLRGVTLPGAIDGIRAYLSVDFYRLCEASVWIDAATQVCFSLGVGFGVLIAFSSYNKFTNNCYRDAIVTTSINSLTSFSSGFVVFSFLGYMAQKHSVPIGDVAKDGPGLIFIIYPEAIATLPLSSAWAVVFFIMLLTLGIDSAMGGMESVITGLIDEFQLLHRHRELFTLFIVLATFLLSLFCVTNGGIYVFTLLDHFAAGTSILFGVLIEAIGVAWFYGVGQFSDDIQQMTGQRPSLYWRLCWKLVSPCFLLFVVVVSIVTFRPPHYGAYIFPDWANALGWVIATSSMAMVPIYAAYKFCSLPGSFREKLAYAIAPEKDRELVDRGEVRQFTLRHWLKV
Protocol: Human dopamine transporters expressed in CHO—K1 cells are used in modified Tris-HCl buffer at pH 7.4. […] Non-specific binding is estimated in the presence of […] nomifensine.

serotonin transporter = molecular target: T3, serotonin transporter (Homo sapiens, UniProt P31645); assay: Serotonin transporter binding radioligand inhibition ([3H]-imipramine); conditions: concentration 5 μM
T3 construct: expressed in transfected cells; host or cells: CHO cells
T3 sequence (P31645 whole entry): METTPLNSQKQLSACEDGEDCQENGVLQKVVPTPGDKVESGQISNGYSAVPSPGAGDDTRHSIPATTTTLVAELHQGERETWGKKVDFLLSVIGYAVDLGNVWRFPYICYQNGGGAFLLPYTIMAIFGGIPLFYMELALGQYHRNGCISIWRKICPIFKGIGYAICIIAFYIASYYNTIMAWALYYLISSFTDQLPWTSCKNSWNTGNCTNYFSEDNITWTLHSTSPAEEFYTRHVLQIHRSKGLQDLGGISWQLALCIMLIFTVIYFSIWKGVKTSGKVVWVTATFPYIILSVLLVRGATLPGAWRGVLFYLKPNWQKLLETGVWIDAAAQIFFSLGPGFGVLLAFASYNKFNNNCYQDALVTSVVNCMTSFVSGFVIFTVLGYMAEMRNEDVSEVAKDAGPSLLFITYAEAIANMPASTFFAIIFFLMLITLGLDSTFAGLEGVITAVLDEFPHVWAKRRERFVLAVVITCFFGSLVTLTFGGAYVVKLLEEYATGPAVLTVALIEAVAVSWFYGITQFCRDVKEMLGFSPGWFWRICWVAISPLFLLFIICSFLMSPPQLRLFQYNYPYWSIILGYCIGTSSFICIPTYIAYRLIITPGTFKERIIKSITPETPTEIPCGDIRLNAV
Excerpt: The serotonin transporter removes serotonin from the synaptic deft. The serotonin transporter terminates the effects of […], enabling its reuse by the presynaptic neuron.

Structure (SMILES): CNCCC(Oc1ccc(CCO)cc1)c1ccccc1.Cl (single isomer, unassigned) [Example 2, 2-[4-[3-(Methylamino)-1-phenylpropoxy]phenyl]ethanol hydrochloride]
- visuospatial memory and learning ([1]; J20 mice): positive effect in some sessions
- visuospatial memory and learning ([1]; old wild type mice): increase in visuospatial memory and learning
- cell viability (MTT) (CHO cells): 100%
- IC50 (uptake of norepinephrine): 0.0864 µM and 0.086 µM
- inhibition at 5 µM [2]: 95%
- analgesic activity following formalin challenge (hind paw licking time) (mice; 3 mg/kg oral): significant analgesic activity
- analgesic activity following formalin challenge (hind paw licking time) (mice; 30 mg/kg intraperitoneal): significant analgesic activity
- analgesic activity following formalin challenge (hind paw licking time) (mice; 30 mg/kg oral): significant analgesic activity
- analgesic activity following formalin challenge (hind paw licking time) (mice; 90 mg/kg oral): significant analgesic activity
- inhibition at 10 µM [3]: 88%
- inhibition at 5 µM (serotonin transporter): 82%
